In the supplement of paper PMC10331698:
± gives the standard deviation of the averaged measurements.

Legend:
Assay in all cases: level (log10 ratio to DMSO vehicle control); higher = higher biomarker level / cell amount than vehicle control
[1] = compound: O=P(O)(O)CCC(F)(F)C(F)(F)C(F)(F)C(F)(F)C(F)(F)C(F)(F)F [2-(Perfluorohexyl)ethylphosphonic acid]; details: in DMSO
Procedure: (§1)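 BioMAP Diversity Plus panel of 12 human primary cell co-culture systems (3C, 4H, LPS, SAg, BT, BF4T, BE3C, CASM3C, HDF3CGF, KF3CT, MyoF, Mphg). Compounds were added 1 h before stimulation and left for 24 h (MyoF 48 h; BT 72 h for soluble read-outs or 6 d for IgG). Biomarkers were read by ELISA, cytotoxicity by SRB, PBMC viability and proliferation by Alamar Blue. Each well value was divided by the mean of 8 DMSO control wells on the same plate and log10 transformed; duplicate blinded samples were tested at 4 concentrations.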

[2] = compound: OCC(F)(F)C(F)(F)C(F)(F)C(F)(F)C(F)(F)C(F)(F)C(F)(F)C(F)(F)C(F)(F)C(F)(F)C(F)(F)F [11:1 Fluorotelomer alcohol]; details: in DMSO
Procedure: as §1

[3] = compound: C=CC(=O)OCC(F)(F)C(F)(F)C(F)(F)C(F)(F)C(F)(F)C(F)(F)C(F)(F)C(F)F [1H,1H,9H-Perfluorononyl acrylate]; details: in DMSO
Procedure: as §1

[4] = compound: C=CC(=O)OCC(F)(F)C(F)(F)C(F)(F)C(F)(F)COC(=O)C=C [1H,1H,6H,6H-Perfluorohexane-1,6-diol diacrylate]; details: 6700 nM; in DMSO
Procedure: as §1

[5] = compound: OCCCCC(F)(F)C(F)(F)C(F)(F)C(F)(F)F [4:4 Fluorotelomer alcohol]; details: in DMSO
Procedure: as §1

[6] = compound: FC(F)(F)C(F)(F)C(F)(F)C(F)(F)CCI [1H,1H,2H,2H-Perfluorohexyl iodide]; details: in DMSO
Procedure: as §1

[7] = compound: O=C(O)C(F)(F)C(F)(F)C(F)(F)C(F)(F)C(F)(F)C(F)(F)C(F)(F)F [Ammonium perfluorooctanoate]; details: in DMSO
Procedure: as §1

Test System | level (log10) ([1]; 6700 nM) | level (log10) ([1]; 20000 nM) | level (log10) ([1]; 60000 nM) | level (log10) ([2]; 1100 nM) | level (log10) ([2]; 3300 nM) | level (log10) ([2]; 10000 nM) | level (log10) ([3]; 6700 nM) | level (log10) ([3]; 20000 nM) | level (log10) ([3]; 60000 nM) | level (log10) [4] | level (log10) ([5]; 6700 nM) | level (log10) ([5]; 20000 nM) | level (log10) ([5]; 60000 nM) | level (log10) ([6]; 6700 nM) | level (log10) ([6]; 20000 nM) | level (log10) ([6]; 60000 nM) | level (log10) ([7]; 6700 nM) | level (log10) ([7]; 20000 nM) | level (log10) ([7]; 60000 nM)
HDF3CGF:M-CSF | 0.0025 ± 0.0092 | 0.0265 ± 0.0092 | 0.013 ± 0.014 | 0.0115 ± 0.016 | 0.0095 ± 0.032 | -0.003 ± 0.021 | -0.039 | -0.079 ± 0.041 | -0.254 ± 0.076 | -0.588 ± 0.054 | -0.008 | -0.0015 ± 0.0092 | -0.014 ± 0.0014 | -0.015 ± 0.0085 | -0.0295 ± 0.0064 | -0.074 ± 0.014 | 0.002 ± 0.037 | 0.034 ± 0.017 | -0.049 ± 0.042
KF3CT:SRB | -0.0015 ± 0.0035 | -0.011 ± 0.0028 | -0.007 ± 0.013 | -0.01 ± 0.0057 | -0.0285 ± 0.005 | -0.014 ± 0.0057 | 0.003 ± 0.0014 | -0.002 ± 0.0085 | 0.0045 ± 0.018 | 0.003 ± 0.0057 | -0.02 ± 0.0085 | -0.011 ± 0.017 | 0.004 ± 0.018 | -0.013 ± 0.0099 | -0.01 ± 0.013 | 0.0035 ± 0.015 | -0.0125 ± 0.0035 | -0.0115 ± 0.0021 | -0.0195 ± 0.0021
CASM3C:M-CSF | 0.0025 ± 0.005 | 0.0115 ± 0.011 | -0.0055 ± 0.037 | -0.026 ± 0.044 | 0.006 ± 0.031 | 0.017 ± 0.0099 | -0.0225 ± 0.06 | 0.001 ± 0.031 | -0.041 ± 0.071 | -0.105 ± 0.016 | 0.0085 ± 0.011 | -0.005 ± 0.024 | 0.021 ± 0.047 | -0.013 ± 0.0014 | -0.02 ± 0.0014 | 0.0035 ± 0.049 | -0.0045 ± 0.0021 | 0.011 ± 0.028 | 0.015 ± 0.05
MyoF:PAI-I | -0.0305 ± 0.0092 | -0.0115 ± 0.0064 | 0.0005 ± 0.013 | 0.009 ± 0.0042 | 0.014 ± 0.013 | 0.0205 ± 0.0064 | -0.0225 ± 0.0078 | -0.0345 ± 0.047 | -0.045 ± 0.0099 | 0 ± 0.042 | 0.0125 ± 0.011 | 0.007 ± 0.011 | 0.0095 ± 0.016 | 0.0085 ± 0.0064 | -0.003 ± 0.0071 | 0.0085 ± 0.03 | 0.0095 ± 0.015 | 0.0035 ± 0.013 | 0.027 ± 0.011
CASM3C:CD87/uPAR | -0.0295 ± 0.022 | -0.025 ± 0.014 | -0.002 ± 0.0071 | 0.0055 ± 0.025 | -0.004 ± 0.021 | 0.0085 ± 0.032 | 0.0315 ± 0.005 | 0.017 ± 0.042 | 0.005 ± 0.0057 | -0.0235 ± 0.013 | -0.009 ± 0.028 | -0.0135 ± 0.029 | -0.0045 ± 0.025 | -0.0015 ± 0.018 | -0.024 ± 0.051 | -0.0345 ± 0.033 | 0.003 ± 0.03 | 0.008 ± 0.0028 | 0.0045 ± 0.023
BE3C:PAI-I | -0.036 ± 0.0028 | -0.0065 ± 0.012 | 0.052 ± 0.04 | -0.045 ± 0.057 | -0.0855 ± 0.054 | -0.0555 ± 0.07 | -0.029 ± 0.031 | -0.003 ± 0.018 | -0.02 ± 0.011 | 0.0495 ± 0.025 | -0.026 ± 0.02 | -0.002 ± 0.031 | 0.011 | -0.0335 ± 0.0064 | -0.0305 ± 0.036 | -0.051 ± 0.0085 | 0.014 ± 0.023 | 0.0045 ± 0.005 | 0.0255 ± 0.016
KF3CT:MMP-9 | -0.0305 ± 0.012 | -0.024 ± 0.0071 | -0.0565 ± 0.026 | -0.042 ± 0.0099 | -0.071 ± 0.027 | -0.0545 ± 0.026 | -0.013 ± 0.014 | -0.0085 ± 0.0035 | -0.0285 ± 0.04 | -0.035 ± 0.064 | -0.011 ± 0.013 | -0.003 ± 0.034 | 0.011 ± 0.021 | 0.0055 ± 0.0078 | 0.0035 ± 0.00071 | 0.0115 ± 0.005 | 0.0045 ± 0.018 | 0.017 ± 0.0099 | 0.0105 ± 0.023
KF3CT:TIMP-2 | -0.0075 ± 0.012 | 0.011 | 0.013 ± 0.017 | -0.014 ± 0.0028 | -0.0405 ± 0.013 | 0.002 ± 0.016 | -0.0125 ± 0.046 | -0.022 ± 0.0085 | -0.042 ± 0.011 | -0.088 ± 0.0057 | 0.0135 ± 0.0064 | 0.0075 ± 0.019 | -0.0015 ± 0.015 | -0.0185 ± 0.005 | -0.009 ± 0.018 | -0.008 ± 0.02 | -0.006 ± 0.0028 | -0.011 ± 0.018 | 0.0065 ± 0.025
KF3CT:CXCL10/IP-10 | -0.009 ± 0.0057 | 0.0035 ± 0.0078 | 0.0045 ± 0.005 | 0.003 ± 0.0042 | -0.002 ± 0.0057 | 0.0085 ± 0.0035 | -0.003 ± 0.024 | -0.01 ± 0.017 | -0.015 ± 0.0099 | -0.0365 ± 0.005 | 0.0105 ± 0.04 | 0.02 ± 0.03 | 0.0275 ± 0.037 | 0.012 ± 0.045 | 0.0205 ± 0.028 | 0.017 ± 0.05 | -0.0025 ± 0.00071 | -0.0045 ± 0.005 | -0.007 ± 0.0014
lMphg:CCL2/MCP-1 | -0.004 ± 0.0071 | 0.01 ± 0.0042 | -0.0105 ± 0.005 | 0.0125 ± 0.0078 | 0.0295 ± 0.035 | 0.0535 ± 0.0021 | -0.009 ± 0.0099 | -0.025 ± 0.021 | -0.041 ± 0.055 | -0.04 ± 0.061 | -0.0295 ± 0.037 | -0.0145 ± 0.00071 | 0.009 ± 0.0071 | -0.028 ± 0.042 | -0.0285 ± 0.0021 | 0.008 ± 0.013 | 0.0045 ± 0.016 | 0.005 ± 0.016 | 0.0065 ± 0.0021
HDF3CGF:EGFR | -0.012 ± 0.034 | -0.0255 ± 0.005 | 0.0195 ± 0.025 | 0.034 ± 0.024 | 0.044 ± 0.064 | 0.0275 ± 0.083 | -0.019 ± 0.023 | 0.017 ± 0.0014 | 0.045 ± 0.013 | -0.0155 ± 0.0078 | -0.0155 ± 0.0035 | -0.0105 ± 0.0035 | 0.0195 ± 0.05 | 0.0025 ± 0.026 | -0.006 ± 0.038 | 0.015 ± 0.047 | -0.095 ± 0.14 | -0.005 ± 0.05 | -0.105 ± 0.087
KF3CT:IL-1alpha | 0.0005 ± 0.0078 | 0.0225 ± 0.00071 | 0.0455 ± 0.012 | 0.0015 ± 0.028 | -0.0425 ± 0.0064 | -0.021 ± 0.011 | 0.021 ± 0.0042 | 0.023 ± 0.031 | 0.018 ± 0.0085 | -0.0545 ± 0.035 | 0.0145 ± 0.029 | 0.005 ± 0.042 | 0.019 ± 0.03 | 0.0115 ± 0.037 | 0.0105 ± 0.015 | 0.051 ± 0.0071 | -0.0065 ± 0.00071 | -0.026 ± 0.0071 | -0.079 ± 0.025
HDF3CGF:Collagen I | -0.016 ± 0.0042 | -0.0365 ± 0.005 | -0.0865 ± 0.09 | 0.438 ± 0.0099 | 0.471 ± 0.03 | 0.394 ± 0.062 | -0.0115 ± 0.016 | -0.0075 ± 0.056 | -0.0605 ± 0.11 | -0.013 ± 0.048 | -0.0175 ± 0.067 | -0.0175 ± 0.071 | 0.031 ± 0.13 | 0.004 ± 0.047 | -0.0205 ± 0.063 | 0.015 ± 0.11 | 0.0285 ± 0.019 | 0.01 ± 0.021 | -0.0645 ± 0.088
BE3C:SRB | -0.01 ± 0.0042 | -0.001 ± 0.0085 | 0.001 ± 0.02 | -0.03 ± 0.014 | -0.0485 ± 0.005 | -0.0235 ± 0.0064 | -0.004 | 0.0005 ± 0.005 | 0.001 ± 0.016 | -0.006 ± 0.0028 | -0.0065 ± 0.0035 | -0.0035 ± 0.005 | 0.0015 ± 0.016 | -0.003 ± 0.0028 | -0.0035 ± 0.00071 | 0.002 ± 0.011 | -0.0045 ± 0.005 | -0.003 | -0.0145 ± 0.0078
CASM3C:IL-6 | -0.0285 ± 0.005 | -0.0425 ± 0.018 | -0.0095 ± 0.025 | -0.0065 ± 0.00071 | -0.022 ± 0.025 | 0.005 ± 0.02 | -0.036 ± 0.042 | 0.0085 ± 0.074 | -0.031 ± 0.047 | -0.0735 ± 0.15 | 0.0005 ± 0.016 | -0.0215 ± 0.025 | 0.0155 ± 0.077 | 0.0195 ± 0.028 | 0.005 ± 0.025 | 0.036 ± 0.098 | -0.0035 ± 0.025 | -0.024 ± 0.048 | -0.018 ± 0.05
